How the values were obtained:
Assay type in all cases: in vivo, medaka (Oryzias latipes)
[1] = tested on: gal expression in the whole brain; assay: Whole-brain gal expression by real-time PCR in gonadectomized, sex steroid-treated fish; settings: castrated adult males, 100 ng/ml by immersion in water for 6 days, normalized to actb, versus castrated vehicle
From the text: (§1) For both male and female fish, the gonad was removed under tricaine methane sulfonate anesthesia (0.02%) (Sigma-Aldrich, St. Louis, MO) through a small incision made in the ventrolateral abdominal wall. Immediately after removal of the gonad, the incision was sutured with nylon thread. Sham-operated fish received the same surgical treatment as gonadectomized fish, except for removal of the gonad. After a recovery period of 3 days in saline (0.9% (w/v) NaCl), gonadectomized fish were immersed in water containing 100 ng/ml of KT (Cosmo Bio, Tokyo, Japan) or E2 (Fujifilm Wako Pure Chemical Corporation), or vehicle (ethanol) alone for 6 days and then sampled. Sham-operated fish were treated with vehicle alone and used as controls. […]
In cases where there were fewer than seven data points per experimental group, individual data points were plotted with the mean ± standard error of the mean (SEM); in cases where there were seven or more data points per experimental group, data were plotted as box and whisker plots by the Tukey method for clarity. In real-time PCR analysis, the expression level of gal (normalized to that of actb) in female whole brain was arbitrarily set to 1, and the relative difference was calculated in each data set to facilitate comparisons among data sets.

[2] = tested on: gal-expressing neurons in brain nuclei; assay: Number of gal-expressing neurons by in situ hybridization in gonadectomized, sex steroid-treated fish; settings: 100 ng/ml by immersion for 6 days, n = 5 per group; for ovariectomy-induced increase in the number of gal-expressing neurons in pPMp, effect of steroid treatment: ovariectomized adult females
From the text: For both male and female fish, the gonad was removed under tricaine methane sulfonate anesthesia (0.02%) (Sigma-Aldrich, St. Louis, MO) through a small incision made in the ventrolateral abdominal wall. Immediately after removal of the gonad, the incision was sutured with nylon thread. Sham-operated fish received the same surgical treatment as gonadectomized fish, except for removal of the gonad. After a recovery period of 3 days in saline (0.9% (w/v) NaCl), gonadectomized fish were immersed in water containing 100 ng/ml of KT (Cosmo Bio, Tokyo, Japan) or E2 (Fujifilm Wako Pure Chemical Corporation), or vehicle (ethanol) alone for 6 days and then sampled. Sham-operated fish were treated with vehicle alone and used as controls. In another experiment, females of gal knockout lines with intact ovaries were treated with 100 ng/ml of KT by immersion in water for 10 days and then sampled. The sex steroid concentration used was based on previously reported serum steroid levels in medaka ([Foran et al., 2002]; [Foran et al., 2004]; [Tilton et al., 2003]).
The procedure for single-label in situ hybridization has been described previously ([Hiraki et al., 2012]). In brief, whole brains were fixed in 4% paraformaldehyde (PFA) and embedded in paraffin. Serial coronal sections of 10 μm thickness were cut and hybridized with the DIG-labeled galr1 or galr2 probe or the same DIG-labeled gal probe used for Northern blot analysis. Hybridization signals were visualized by using alkaline phosphatase-conjugated anti-DIG antibody and 5-bromo-4-chloro-3-indolyl phosphate/nitro blue tetrazolium (BCIP/NBT) substrate (Roche Diagnostics). Color development was allowed to proceed for more than 5 hr, or was stopped after 15 min (for quantification of gal expression in males that were castrated and treated with sex steroids) or 1 hr (for quantification of gal expression in females that were ovariectomized and treated with sex steroids) to avoid saturation. All sections in each comparison were processed simultaneously under the same conditions. For galr1, for which hybridization signals were detected throughout the brain and thus the specificity of the staining was somewhat uncertain, in situ hybridization was also performed using a sense probe under conditions identical to those used for the antisense probe. No signal was obtained by the sense probe, confirming that the signals obtained by the antisense probe represented specific staining.
To obtain quantitative data, the number of gal-expressing neurons in each brain nucleus was counted manually. […] In this case, the total number of the neurons in the nuclei was counted. Only intensively labeled neurons with a clearly defined cell body were counted to reduce, if not eliminate, the likelihood of double counting of the neurons split between sections. […]

adult female medaka = assay: Aggressive behavior test of KT-treated females; settings: 100 ng/ml KT by immersion for 10 days, main effect of androgen treatment
From the text: as §1, with “sampled.” for “sampled. Sham-operated fish were treated with vehicle alone and used as controls.”
All behavioral procedures were conducted in 2-l rectangular tanks contained within a large recirculating water system with a constant influx of dechlorinated tap water. […] The partitions were then removed, and the fish were allowed to interact for 20 min while their behavior was recorded as described above. […]
In each test, wild-type, heterozygous, and homozygous siblings reared under the same conditions were used as the comparison group. The total number of each aggressive act (chase, fin display, circle, strike, and bite) performed by the four fish in the tank was counted manually from the video recordings. In addition, the total number of chases by the four fish in the tank was calculated for each 5 min interval during the test period. […]

## C[C@]12CC(=O)[C@H]3[C@@H](CCC4=CC(=O)CC[C@@]43C)[C@@H]1CC[C@@H]2O [KT, 11-ketotestosterone]
[1]
  level of brain gal expression reduced by castration, effect of steroid treatment: restored by treatment with KT
[2]; castrated adult males
  number of gal-expressing neurons in pPMp reduced by castration, effect of steroid treatment: restored by KT treatment
[2]
  ovariectomy-induced increase in the number of gal-expressing neurons in pPMp, effect of steroid treatment: further enhanced
Adult female medaka; adult females of gal knockout lines Δ2 and Δ10, 20 min test
  number of bites: significantly increased
Adult female medaka; adult females of gal knockout lines Δ2 and Δ10 with intact ovaries, four fish per tank, 20 min, n = 6 per group
  number of chases: significantly increased

## C[C@]12CC[C@@H]3c4ccc(O)cc4CC[C@H]3[C@@H]1CC[C@@H]2O [E2, estradiol-17β]
[2]; castrated adult males
  number of gal-expressing neurons in aPMp/pPPa: increased
[2]
  ovariectomy-induced increase in the number of gal-expressing neurons in pPMp, effect of steroid treatment: significantly attenuated

From publication PMC7423395, “Male-predominant galanin mediates androgen-dependent aggressive chases in medaka” (eLife, 2020)
